The target in test [1] is T1, purified Human plasma kallikrein (Homo sapiens, UniProt P03952).
T1 construct: yields a heavy chain (371 amino acids) and a light chain (248 amino acids); purchased Enzyme Research Laboratories
Kind of test: Kallikrein Assay. To be noted: Plasma Kallekrein IC50; fluorogenic substrate Acetyl-K-P-R-AFC, 0.5 nM enzyme, pH 7.4; read-out: PK IC50. The format is biochemical. How it is done: (§1) The effectiveness of a compound of the present invention as an inhibitor of Kallikrein can be determined using a relevant purified serine protease, and an appropriate synthetic substrate. The rate of hydrolysis of the chromogenic or fluorogenic substrate by the relevant serine protease was measured both in the absence and presence of compounds of the present invention. Assays were conducted at room temperature or at 37° C. […] A decrease in the rate of fluorescence change in the presence of inhibitor is indicative of enzyme inhibition. Such methods are known to one skilled in the art. The results of this assay are expressed as the inhibitory constant, K1.
Kallikrein determinations were made in 50 mM HEPES buffer at pH 7.4 containing 150 mM NaCl, 5 mM CaCl2, and 0.1% PEG 8000 (polyethylene glycol; Fisher Scientific). Determinations were made using purified Human plasma kallikrein at a final concentration of 0.5 nM (Enzyme Research Laboratories) and the synthetic substrate, Acetyl-K—P—R-AFC (Sigma # C6608) at a concentration of […].
Times required to achieve equilibration between enzyme and inhibitor were determined in control experiments. The reactions were performed under linear progress curve conditions and fluorescence increase measured at 405 Ex/510 Em nm. […] IC50 was determined by inflection point from a four parameter logistic curve fit. Ki was calculated using the Cheng Prusoff equation, Ki=IC50/(1+([S]/Km)).

Test [2] has as its target T2, purified human Factor XIa (Homo sapiens, UniProt P03951).
T2 construct: purified human Factor XIa; purchased Sekisui Diagnostics
In words: Factor XIa Assay. The format is biochemical. To be noted: fluorogenic substrate Z-Gly-Pro-Arg-AFC 100 μM, 40 pM enzyme, pH 7.4, read-out: F11a IC50. How it is done: as §1, with “Coagulation Factor XIa” for “Kallikrein”, “The results of this assay are expressed as the inhibitory constant, K1.” left out
Factor XIa determinations were made in 50 mM HEPES buffer at pH 7.4 containing 150 mM NaCl, 5 mM CaCl2, and 0.1% PEG 8000 (polyethylene glycol; JT Baker or Fisher Scientific). Determinations were made using purified human Factor XIa at a final concentration of 40 pM (Sekisui Diagnostics) and he synthetic substrate, Z-Gly-Pro-Arg-AFC, TFA salt (Sigma #C0980) at a concentration of 100 μM.
Activity assays were performed by diluting a stock solution of substrate at least tenfold to a final concentration ≦0.1 Km into a solution containing enzyme or enzyme equilibrated with inhibitor. Times required to achieve equilibration between enzyme and inhibitor were determined in control experiments. Initial velocities of product formation in the absence (VO) or presence of inhibitor (Vi) were measured. Assuming competitive inhibition, and that unity is negligible compared Km/[S], [I]/e, and [I]/e (where [S], [I], and e respectively represent the total concentrations, of substrate, inhibitor and enzyme), the equilibrium constant (Ki) for dissociation of the inhibitor from the enzyme can be obtained from the dependence of VO/Vi on [I] shown in the following equation.

The values below come from patent US9868727B2, “Factor XIa inhibitors” (Merck Sharp & Dohme Corp., priority 2014, dated 2018).

As usually defined, the IC50 is the concentration needed to halve the response being measured.

T2 sequence (P03951 388-625 limits assumed): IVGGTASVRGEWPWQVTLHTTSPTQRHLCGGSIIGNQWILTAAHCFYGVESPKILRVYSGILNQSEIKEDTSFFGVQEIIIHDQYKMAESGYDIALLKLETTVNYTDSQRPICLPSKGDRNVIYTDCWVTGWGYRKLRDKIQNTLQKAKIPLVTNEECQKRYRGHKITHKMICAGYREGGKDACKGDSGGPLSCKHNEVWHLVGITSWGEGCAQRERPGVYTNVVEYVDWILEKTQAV
T2 sequence (P03951 19-387 partner limits assumed): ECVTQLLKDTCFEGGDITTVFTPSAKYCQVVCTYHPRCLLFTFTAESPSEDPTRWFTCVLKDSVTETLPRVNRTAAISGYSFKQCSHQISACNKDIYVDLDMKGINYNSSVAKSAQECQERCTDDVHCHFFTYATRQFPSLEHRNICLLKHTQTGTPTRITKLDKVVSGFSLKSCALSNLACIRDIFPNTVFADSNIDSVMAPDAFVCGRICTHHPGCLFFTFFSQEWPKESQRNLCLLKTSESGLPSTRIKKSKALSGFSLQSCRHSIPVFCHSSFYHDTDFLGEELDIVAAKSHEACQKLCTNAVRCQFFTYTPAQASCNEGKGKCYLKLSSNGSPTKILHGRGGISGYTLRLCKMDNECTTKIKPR
T1 sequence (P03952 391-638 limits assumed): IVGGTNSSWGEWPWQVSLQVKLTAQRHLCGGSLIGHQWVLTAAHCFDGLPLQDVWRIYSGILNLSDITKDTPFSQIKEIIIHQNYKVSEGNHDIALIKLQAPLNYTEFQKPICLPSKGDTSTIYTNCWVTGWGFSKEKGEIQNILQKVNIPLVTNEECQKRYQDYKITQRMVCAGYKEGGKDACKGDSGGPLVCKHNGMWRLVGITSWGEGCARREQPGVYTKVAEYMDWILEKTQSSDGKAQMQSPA
T1 sequence (P03952 20-390 partner limits assumed): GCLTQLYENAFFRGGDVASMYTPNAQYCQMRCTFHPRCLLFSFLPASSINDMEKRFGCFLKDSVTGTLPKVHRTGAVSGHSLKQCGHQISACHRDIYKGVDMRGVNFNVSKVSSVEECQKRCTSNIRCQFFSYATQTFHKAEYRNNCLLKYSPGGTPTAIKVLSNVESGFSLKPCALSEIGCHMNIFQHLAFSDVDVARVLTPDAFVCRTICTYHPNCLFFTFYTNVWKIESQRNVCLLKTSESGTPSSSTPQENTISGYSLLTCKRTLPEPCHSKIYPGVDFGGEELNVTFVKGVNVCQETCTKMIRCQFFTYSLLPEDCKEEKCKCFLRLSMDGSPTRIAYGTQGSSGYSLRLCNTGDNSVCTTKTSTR

Turning to `COC(=O)Nc1ccc(-c2[nH]c(C(CC3CC3)c3ccc(-c4cc(Cl)ccc4-n4cnnn4)c[n+]3[O-])nc2C)cc1` (single isomer, unassigned) [Example 76, methyl {4-[2-(1-{5-[5-chloro-2-(1H-tetrazol-1-yl)phenyl]-1-oxidopyridin-2-yl}-2-cyclopropylethyl)-4-methyl-1H-imidazol-5-yl]phenyl}carbamate], the IC50 was determined as 802 nM in test [1] and 36.8 nM in test [2]. Regarding `COC(=O)Nc1ccc(-c2[nH]c(C(CC3CC3)c3ccc(-c4cc(Cl)ccc4-n4cnnn4)c[n+]3[O-])nc2Cl)cc1` (single isomer, unassigned) [Example 79, 5-(5-chloro-2-(1H-tetrazol-1-yl)phenyl)-2-(1-(4-chloro-5-(4-((methoxycarbonyl)amino)phenyl)-1H-imidazol-2-yl)-2-cyclopropylethyl)pyridine 1-oxide], the values for the half-maximal inhibitory concentration (IC50) in test [1] and in test [2] were 24 nM and 0.5 nM, respectively.

Regarding `COC(=O)Nc1ccc(-c2cnc(C(CC3CC3)c3ccc(-c4cc(Cl)ccc4-n4cnnn4)c[n+]3[O-])[nH]2)c(Cl)c1` (single isomer, unassigned) [Example 41], the IC50 in test [1] is 399 nM; in test [2], 23.7 nM. Regarding `[O-][n+]1cc(-c2cc(Cl)ccc2-n2cnnn2)ccc1C(Cc1ccccc1)c1nc(-c2cccc(F)c2)c[nH]1` (single isomer, unassigned) [Example 3], the concentration for half-maximal inhibition (IC50) in test [1] came out at 27.6 nM; in test [2], 2.87 nM.

For `COC(=O)Nc1ccc(-c2[nH]c(C(CC3CC3)c3ccc(-c4cc(Cl)ccc4-n4cnnn4)c[n+]3[O-])nc2C)cc1` (single isomer, unassigned) [Example 77, methyl {4-[2-(1-{5-[5-chloro-2-(1H-tetrazol-1-yl)phenyl]-1-oxidopyridin-2-yl}-2-cyclopropylethyl)-4-methyl-1H-imidazol-5-yl]phenyl}carbamate], the IC50 in test [1] was found to be 48 nM; in test [2] it was 1.52 nM.

On to `O=C(O)c1scc(-c2c[nH]c(C(Cc3ccccc3)c3ccc(-c4cc(Cl)ccc4-n4cnnn4)c[n+]3[O-])n2)c1F` (single isomer, unassigned) [Example 10], for which the IC50 in test [1] came out at 117 nM; in test [2] it was 10.1 nM. On to `COC(=O)Nc1ccc(-c2cnc(C(CC3(C)CC3)c3ccc(-c4cc(Cl)ccc4-n4cnnn4)c[n+]3[O-])[nH]2)cc1` (single isomer, unassigned) [Example 43], for which the IC50 in test [1] stood at 887 nM; in test [2] it was 48.2 nM.

On to `N#Cc1ccc(-c2c[nH]c(C(Cc3ccc(F)cc3)c3ccc(-c4cc(Cl)ccc4-n4cnnn4)c[n+]3[O-])n2)cc1` (single isomer, unassigned) [Example 20], for which the IC50 in test [1] worked out at 28.8 nM; in test [2], 1.54 nM.

On to `COC(=O)Nc1ccc(-c2nc([C@H](Cc3ccccc3)c3ccc(-c4cc(Cl)ccc4-n4cnnn4)c[n+]3[O-])[nH]c2Cl)cc1` [Example 1, (R) 5-(5-Chloro-2-(1H-tetrazol-1-yl)phenyl)-2-(1-(5-chloro-4-(4-((methoxycarbonyl)amino)phenyl)-1H-imidazol-2-yl)-2-phenylethyl)pyridine 1-oxide], for which the concentration for half-maximal inhibition (IC50) in test [1] stood at 1.52 nM; in test [2], 1.34 nM. As to `COC(=O)Nc1ccc(-c2cnc([C@@H](Cc3ccccc3)c3ccc(-c4c(-n5cnnn5)ccc(Cl)c4F)c[n+]3[O-])[nH]2)cc1` [Example 24], the figures for the half-inhibitory concentration (IC50) in test [1] and in test [2] were 88.7 nM and 2.36 nM, respectively.

As for `O=C(O)c1scc(-c2cnc(C(CC3CC3)c3ccc(-c4cc(Cl)ccc4-n4cnnn4)c[n+]3[O-])[nH]2)c1F` (single isomer, unassigned) [Example 58, 2-(1-(5-(5-carboxy-4-fluorothiophen-3-yl)-1H-imidazol-2-yl)-2-cyclopropylethyl)-5-(5-chloro-2-(1H-tetrazol-1-yl)phenyl)pyridine 1-oxide], the values for the IC50 in test [1] and in test [2] were 1050 nM and 11.8 nM, respectively. As to `COC(=O)Nc1ccc(-c2c[nH]c(C(Cc3ccccc3)c3ccc(-c4c(F)ccc(Cl)c4F)c[n+]3[O-])n2)cc1` (single isomer, unassigned) [Example 5], the values for the IC50 in test [1] and in test [2] were 137 nM and 42.2 nM, respectively. Turning to `Nc1ccc(-c2cnc(C(CC3CC3)c3ccc(-c4cc(Cl)ccc4-n4cnnn4)c[n+]3[O-])[nH]2)c(Cl)n1` (single isomer, unassigned) [Example 47, 6-chloro-5-[2-(1-{5-[5-chloro-2-(1H-tetrazol-1-yl)phenyl]-1-oxidopyridin-2-yl}-2-cyclopropylethyl)-1H-imidazol-5-yl]pyridin-2-amine], the IC50 turned out to be 80 nM in test [1] and 0.32 nM in test [2].

Turning to `[O-][n+]1cc(-c2cc(Cl)ccc2-n2cnnn2)ccc1C(CC1CC1)c1ncc(-c2cccc(F)c2)[nH]1` (single isomer, unassigned) [Example 32], the half-maximal inhibitory concentration (IC50) was 428 nM in test [1] and 14.7 nM in test [2]. Take `O=C(O)c1cccc(-c2c[nH]c(C(CC3CC3)c3ccc(-c4cc(Cl)ccc4-n4cnnn4)c[n+]3[O-])n2)c1` (single isomer, unassigned) [Example 53]: the IC50 is 62 nM in test [1] and 0.9 nM in test [2].

Consider `COC(=O)Nc1ccc(-c2cnc(C(CC3CC3)c3ccc(-c4cc(Cl)ccc4-n4cnnn4)c[n+]3[O-])[nH]2)c(C)c1` (single isomer, unassigned) [Example 34], for which the IC50 in test [1] turned out to be 31.3 nM; in test [2] it was 0.24 nM. On to `[O-][n+]1cc(-c2cc(Cl)ccc2-n2cnnn2)ccc1C(Cc1ccccc1)c1nc(-c2cccc(F)c2)c[nH]1` (single isomer, unassigned) [Example 4], for which the IC50 in test [1] was found to be 624 nM; in test [2], 38.9 nM. On to `N#Cc1ccc(-c2cnc(C(CC3CC3)c3ccc(-c4cc(Cl)ccc4-n4cnnn4)c[n+]3[O-])[nH]2)cc1` (single isomer, unassigned) [Example 29, 4-[2-(1-{5-[5-chloro-2-(1H-tetrazol-1-yl)phenyl]-1-oxidopyridin-2-yl}-2-cyclopropylethyl)-1H-imidazol-5-yl]benzonitrile], for which the IC50 in test [1] came out at 226 nM; in test [2], 2.85 nM. For `COC(=O)Nc1ccc(-c2c[nH]c(C(Cc3ccc(F)cc3)c3ccc(-c4cc(Cl)ccc4C(F)F)c[n+]3[O-])n2)cc1` (single isomer, unassigned) [Example 11, 5-(5-chloro-2-(difluoromethyl)phenyl)-2-(2-(4-fluorophenyl)-1-(4-(4-((methoxycarbonyl)amino)phenyl)-1H-imidazol-2-yl)ethyl)pyridine 1-oxide], in that order: 10.1 nM and 1.86 nM. On to `COC(=O)Nc1ccc(-c2c[nH]c(C(CC3CC3)c3ccc(-c4c(-n5cnnn5)ccc(Cl)c4F)c[n+]3[O-])n2)cc1` (single isomer, unassigned) [Example 64, 5-(3-chloro-2-fluoro-6-(1H-tetrazol-1-yl)phenyl)-2-(2-cyclopropyl-1-(4-(4-((methoxycarbonyl)amino)phenyl)-1H-imidazol-2-yl)ethyl)pyridine 1-oxide], for which the 50% inhibitory concentration (IC50) in test [1] was determined as 5.6 nM. For the compound `COC(=O)Nc1ccc(-c2cnc(C(CC3CC3)c3ccc(-c4cc(Cl)ccc4-n4cnnn4)c[n+]3[O-])[nH]2)cc1` (single isomer, unassigned) [Example 28, 5-(5-chloro-2-(1H-tetrazol-1-yl)phenyl)-2-(2-cyclopropyl-1-(5-(4-((methoxycarbonyl)amino)phenyl)-1H-imidazol-2-yl)ethyl)pyridine 1-oxide], the IC50 in test [1] stood at 20.8 nM. Regarding `COC(=O)Nc1ccc(-c2c[nH]c(C(CC3CC3)c3ccc(-c4c(-n5cnnn5)ccc(Cl)c4F)c[n+]3[O-])n2)cc1` (single isomer, unassigned) [Example 63, 5-(3-chloro-2-fluoro-6-(1H-tetrazol-1-yl)phenyl)-2-(2-cyclopropyl-1-(4-(4-((methoxycarbonyl)amino)phenyl)-1H-imidazol-2-yl)ethyl)pyridine 1-oxide], the half-maximal inhibitory concentration (IC50) in test [1] was 231 nM.
